In US8158605B2, “Azacytidine analogues and uses thereof” (Mount Sinai School of Medicine, priority 2007, dated 2012):

Assays:
[1] = clinical plasma samples; cited from earlier work
[2] = system: MT-3/ADR resistant breast carcinoma; assay: MTT cytotoxicity; format: cell-based; settings: MDR1, MT-3/ADR resistant breast carcinoma (overexpress MDR-1/p-glycoprotein), 24 hours
Method: (§1) The cytotoxicity of Aza-C and 5-Aza-C-5′-elaidic acid was determined in a breast cancer cell line MT-3 and the adriablastin resistant cell line MT-3/ADR. The MT-3/ADR overexpress the MDR-1/p-glycoprotein. […] The cells were incubated for 24 hours. […] Six wells were used per test concentration. The cells were incubated with test compound for 24 hours. […] Similar activity was obtained for Aza-C and 5-Aza-C-5′-elaidic acid in the MT-3 breast carcinoma cell line, but in the MT-3/ADR resistant cell line the activity of Aza-C was lost. […] This may be of importance in the treatment of resistant cancer.

[3] = system: breast carcinoma cell line MT-3; assay: MTT cytotoxicity; format: cell-based; settings: MT-3 breast carcinoma, 24 hours
Method: as §1

[4] = system: Hela cervix carcinoma cells; assay: MTT cytotoxicity with or without nucleoside transport inhibitor dipyridamole; format: cell-based; settings: for IC50: Homo sapiens, HeLa, 72 h, MTT
Method: Dipyridamole was used as an inhibitor of the equilibrative nucleoside transporters hENT1 and hENT2. […] The cells were pre-incubated for 24 hours. Dipyridamole (10 μM) was added to the cells 30 minutes prior to the addition of the test compounds. […] Six wells were used per test concentration. The cells were incubated with test compound for 72 hours.

[5] = system: U937, HL60 and K562 cells; assay: Differentiating induction (NBT reduction, benzidine staining); format: cell-based, human; settings: repeated exposure for 11 (HL60) or 14 (U937, K562) days
Method: Cell differentiation was studied in terms of morphology. […] After initial treatment on day 0, cells were exposed to the new portions of drugs on day 4, 7, and 10. The differentiation was evaluated by NBT reduction assay (U937 and HL60) or by benzidine staining (K562).

[6] = system: NFκB; assay: LPS stimulated NFκB luciferase reporter activity in U937 cells; format: cell-based, human; settings: 10 nM, LPS 1 μg/ml, 1, 3 or 6 hours, compared to DMSO treated control
Method: NFκB-luciferase reporter genes were used to determine the influence of Aza-C and 5-Aza-C-5′-elaidic acid on NFκB-induced luciferase activity in a human monocytic cell line U937, stably transfected with a luciferase reporter containing three NFκB-binding sites. The induction of NFκB was performed using lipopolysaccharide (LPS) at 1 μg/ml for 30 minutes prior to the addition of Aza-C or 5-Aza-C-5′-elaidic acid in the concentrations 10 nM to the medium. The cells were cultured in RPMI-1640 medium including 10% fetal bovine serum. Before stimulation with LPS the cells were transferred to medium containing only 2% fetal bovine serum. Luciferase activity was measured by imaging in an IVIS imaging System 100 (Xenogen Corp., USA) after 1, 3 or 6 hours. The LPS stimulation increased with time over the 6 hours followed in the DMSO treated control cells. […] Generally, a positive stimulation of NFκB as observed for azacytidine is not positive, and it is positive that the LPS stimulation is not further increased by 5′Aza-C-5′-elaidic acid.

[7] = system: K562; assay: WST-1 cytotoxicity assay; format: cell-based; settings: Homo sapiens
Method: (§2) Human promyelocytic leukemia cell lines HL60, human histiocytic lymphoma U937, human chronic myelogenous leukemia K562, human acute T cell Jurkat, breast adenocarcinoma MCF-7, urinary bladder carcinoma 5637, prostate carcinoma DU-145 were purchased from American Type Culture Collection. All cell lines except Jurkat were maintained in RPMI 1640 medium (Gibco, Glasgow, UK) supplemented with 10% heat-inactivated fetal calf serum (FCS), 100 U/ml of penicillin, and […] streptomycin, in an atmosphere of 5% CO2 at 37° C. Jurkat cells were cultured in RPMI 1640 medium supplemented with 1.5 g/L sodium bicarbonate, 4.5 g/L glucose, 10 mM sodium pyruvate, and 10% FCS, 100 U/ml of penicillin, and […] streptomycin.
(§3) MCF-7, DU-145, and 5637 cells (1×10^4/ml) were plated and allowed to adhere and spread for 24 hours. […] Cultures were incubated with WST-1 reagent for 1 hour. The production of formazan was measured by a microplate reader (Bio-Tek Instruments, Elx 800) at 450 nm with a reference wavelength of 650 nm. Growth inhibition was determined as compared to untreated cells (%). IC50 values were calculated using CalcuSyn software (Biosoft).

[8] = system: DU145; assay: WST-1 cytotoxicity assay; format: cell-based; settings: Homo sapiens, DU-145
Method: as §2, §3

[9] = system: Jurkat; assay: WST-1 cytotoxicity assay; format: cell-based; settings: Homo sapiens
Method: as §2, §3

[10] = system: 5637; assay: WST-1 cytotoxicity assay; format: cell-based
Method: as §2, §3

[11] = system: MCF-7; assay: WST-1 cytotoxicity assay; format: cell-based; settings: Homo sapiens, MCF7
Method: as §2, §3

[12] = system: HL60; assay: WST-1 cytotoxicity assay; format: cell-based; settings: Homo sapiens, HL-60
Method: as §2, §3

[13] = system: U937; assay: WST-1 cytotoxicity assay; format: cell-based; settings: Homo sapiens, U-937
Method: as §2, §3

## Nc1ncn([C@@H]2O[C@H](CO)[C@@H](O)[C@H]2O)c(=O)n1 [5-AzaC, 5-azacytidine, reference compound]
[1]
  average terminal half-life: 1.50 ± 2.30 h
[2]
  IC50: > 100 µM
[3]
  IC50: 12.6 ± 2.35 µM
[4]; Hela, with vs without dipyridamole
  activity reduced by addition of dipyridamole: 3 fold
[4]; Hela with dipyridamole (10 μM)
  IC50: 12.8 µM
[4]; without dipyridamole
  IC50: 4.32 µM
[5]
  differentiation induction: did not induce significant differentiation
[6]
  LPS stimulated NFκB luciferase activity: further increased the LPS induced NFκB activation
[7]; K562, 24 hour treatment
  IC50: 8.27 µM
[7]; K562, 48 hour treatment
  IC50: 15.5 µM
[7]; K562, 72 hour treatment
  IC50: 5.83 µM
[8]; DU145, 24 hour treatment
  IC50: 20.9 µM
[8]; DU145, 48 hour treatment
  IC50: 7.11 µM
[8]; DU145, 72 hour treatment
  IC50: 7.2 µM
[9]; 24 hour treatment
  IC50: 9.5 µM
[9]; 48 hour treatment
  IC50: 5.32 µM
[9]; 72 hour treatment
  IC50: 4.77 µM
[10]; 5637, 24 hour treatment
  IC50: 24.6 µM
[10]; 5637, 48 hour treatment
  IC50: 6.72 µM
[10]; 5637, 72 hour treatment
  IC50: 5.21 µM
[11]; MCF-7, 24 hour treatment
  IC50: > 160 µM
[11]; MCF-7, 48 hour treatment
  IC50: 93.7 µM
[11]; MCF-7, 72 hour treatment
  IC50: 53 µM
[12]; HL60, 24 hour treatment
  IC50: 7.28 µM
[12]; HL60, 48 hour treatment
  IC50: 4.92 µM
[12]; HL60, 72 hour treatment
  IC50: 4.71 µM
[13]; U937, 24 hour treatment
  IC50: 1.63 µM
[13]; U937, 48 hour treatment
  IC50: 2.37 µM
[13]; U937, 72 hour treatment
  IC50: 4.77 µM
